Assay results published in US9309221B2, “1-substituted indazole derivative” (Dainippon Sumitomo Pharma Co., Ltd., priority 2012, dated 2016).

Molecular target: T1, human α7 nAChR (Homo sapiens, UniProt P36544)
T1 construct: expressed in transfected cells; host or cells: GH4C1 cells (rat pituitary, ATCC CCL-82.2)
Experiment: Evaluation of PAM activity with human α7 nACh receptor stably expressing cells (aequorin luminescence, FDSS7000)
Type: cell-based
Conditions: ACh at EC20; for α7PAM (%) @ 10 μmol/L: test compound 10 μmol/L, ratio of RLU (Max-Min) of test-compound wells to control wells, human α7 nAChR expressing GH4C1 cells; for PAM activity for α7 nAChR (in words): ratio of RLU (Max-Min) of test wells to control wells
Description: Evaluation of PAM Activity with Human α7 nACh Receptor Stably Expressing Cells
(1) Human α7 nAChR stably expressing cells
Human α7 nAChR stably expressing cells were generated and cultured. In detail, GH4C1 cells derived from rat pituitary (cat#CCL-82.2, ATCC, USA) were used as a host cell. PcDNA3.1Zeo vector containing a nucleotide sequence encoding a protein GenBank BAC81731 and pcDNA3.1 vector containing human α7 nAChR gene (cat#V790-20, invitrogen, Carlsbad, Calif., USA) were transfected to the cells to give aequorins and human α7 nAChR stably expressing cells respectively. The aequorins and human α7 nAChR stably expressing cells were screened with Zeocin (cat#R25001, invitrogen, Carlsbad, Calif., USA) and Geneticin (cat#10131-027, invitrogen, Carlsbad, Calif., USA) respectively.
The cells were cultured in F-10 Nutrient Mixture (Ham) medium (cat#11550-043, invitrogen, Carlsbad, Calif., USA) containing 2.5% fetal bovine serum (cat#2917354, ICN Biomedicals, Inc, USA), 15% inactivated horse serum (cat#26050-088, invitrogen, Carlsbad, Calif., USA), 1 μg/mL Geneticin, and 5 μg/mL Puromycin (cat#14861-84, invitrogen, Carlsbad, Calif., USA), in a Collagen Type 1-coated dish (cat#4030-010, iwaki, Tokyo, Japan). During the culture, the medium was replaced with fresh medium in every 2 to 3 days, and the cells were treated with TrypLE Express (cat#45604-021, invitrogen, Carlsbad, Calif., USA) to collect them in every 7 days. Thus, the cells were subcultured.
7 Days after subculturing, the cells were treated with TrypLE Express to collect them when they were about 80% confluent. The cells were suspended in a reaction medium containing Hanks (cat#14065-056, invitrogen, Carlsbad, Calif., USA)/20 mmol/L Hepes (cat#15630-080, invitrogen, Carlsbad, Calif., USA), Buffer (pH 7.4), F-10 Nutrient Mixture (Ham), and 0.1 mg/mL Geneticin, and the suspension was seeded in a 384-well plate (cat#781090, Greiner, Germany) at 20000 cells/25 μL per well.
On the next day after seeding, Viviren (cat#E649X, Promega, Madison, Wis., USA) was added to the medium so that the final concentration could be 4 μmol/L (15 μL/well). The plates were centrifuged and then placed in the dark for 4 hours at room temperature.
(2) Preparation of the Test Samples
Each of the test compounds was dissolved in DMSO to prepare each test sample at a concentration of 1000-fold the final concentration. To the solution was added Hanks/20 mM HEPES/0.2% BSA (cat#A3803, Sigma, St. Louis, Mo., USA), and the concentration was adjusted to 6-fold the final concentration.
(3) Evaluation of PAM Activity
FDSS7000 (Hamamatsu Photonics) was used to detect the luminescence signal evoked by α7 nAChR stimulation. The cells and a luminescent substrate were put on a plate, and the test sample was added thereto. […] After the addition of ACh, the luminescence signal (the central wavelength: 465 nm) was measured for 138 seconds to calculate RLU (Max-Min). The ratio of the RLU (Max-Min) of the test-compound-containing wells to that of the control wells was defined as PAM activity.

T1 sequence (P36544 23-502): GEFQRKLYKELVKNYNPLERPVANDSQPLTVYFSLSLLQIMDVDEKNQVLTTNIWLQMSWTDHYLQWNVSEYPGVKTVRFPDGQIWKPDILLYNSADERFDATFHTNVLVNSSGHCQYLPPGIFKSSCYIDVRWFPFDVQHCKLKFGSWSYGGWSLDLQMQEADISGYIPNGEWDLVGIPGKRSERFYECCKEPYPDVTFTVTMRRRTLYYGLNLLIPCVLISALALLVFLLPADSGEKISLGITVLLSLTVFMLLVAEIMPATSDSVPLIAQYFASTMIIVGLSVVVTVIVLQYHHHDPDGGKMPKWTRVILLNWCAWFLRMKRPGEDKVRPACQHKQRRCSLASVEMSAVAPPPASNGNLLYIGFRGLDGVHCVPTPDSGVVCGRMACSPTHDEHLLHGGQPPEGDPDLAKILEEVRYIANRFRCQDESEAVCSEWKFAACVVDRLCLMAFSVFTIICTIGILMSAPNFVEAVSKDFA

| α7PAM (%) @ 10 μmol/L [%] | PAM activity for α7 nAChR (in words) | Structure (SMILES) |
| --- | --- | --- |
| 1467 | – | CCO[C@H]1CC[C@H](NC(=O)N2CCC(n3ncc4cc(C)ccc43)CC2)CC1 [Example 90, N-(trans-4-ethoxycyclohexyl)-4-(5-methyl-1H-indazol-1-yl)piperidine-1-carboxamide] |
| 1576 | – | Cc1ccc2c(c1)c(C)nn2C1CCN(C(=O)NC2CCC(F)(F)CC2)CC1 [Example 45, N-(4,4-difluorocyclohexyl)-4-(3,5-dimethyl-1H-indazol-1-yl)piperidine-1-carboxamide] |
| 1764 | – | CCc1ccc2c(cnn2C2CCN(C(=O)N[C@H]3CC[C@H](OC)CC3)CC2)c1 [Example 16, 4-(5-ethyl-1H-indazol-1-yl)-N-(trans-4-methoxycyclohexyl)piperidine-1-carboxamide] |
| 1034 | – | CO[C@H]1CCC[C@H](NC(=O)N2CCC(n3ncc4cc(C5CC5)ccc43)CC2)C1 [Example 211, 4-(5-cyclopropyl-1H-indazol-1-yl)-N-[(1S,3S)-3-methoxycyclohexyl]piperidine-1-carboxamide] |
| 1133 | – | CCc1cccc2c1cnn2C1CCN(C(=O)NC2CCC(F)(F)CC2)CC1 [Example 64, N-(4,4-difluorocyclohexyl)-4-(4-ethyl-1H-indazol-1-yl)piperidine-1-carboxamide] |
| 480 | – | CO[C@H]1CC[C@H](NC(=O)N2CCC(n3ncc4c(C)c(C)ccc43)CC2)CC1 [Example 225] |
| – | stronger PAM activity than others | COCC1CCC(NC(=O)N2CCC(n3ncc4cc(C)ccc43)CC2)CC1 (stereo not drawn) [Example 220] |
| 1025 | – | CCCc1ccc2c(cnn2C2CCN(C(=O)NC3CCOCC3)CC2)c1 [Example 15, 4-(5-propyl-1H-indazol-1-yl)-N-(tetrahydro-2H-pyran-4-yl)piperidine-1-carboxamide] |
| 6779 | stronger PAM activity than others | CCOc1ccc2c(cnn2C2CCN(C(=O)NC3CCCCC3)CC2)c1 [Example 18, N-cyclohexyl-4-(5-ethoxy-1H-indazol-1-yl)piperidine-1-carboxamide] |
| 3749 | stronger PAM activity than others | COc1ccc2c(cnn2C2CCN(C(=O)NC3CCC(F)(F)CC3)CC2)c1 [Example 41, N-(4,4-difluorocyclohexyl)-4-(5-methoxy-1H-indazol-1-yl)piperidine-1-carboxamide] |
| 1673 | – | CCOc1ccc2c(cnn2C2CCN(C(=O)NC3CCC(F)(F)CC3)CC2)c1 [Example 27, N-(4,4-difluorocyclohexyl)-4-(5-ethoxy-1H-indazol-1-yl)piperidine-1-carboxamide] |
| 380 | – | O=C(NC1CCOCC1)N1CCC(n2ncc3c(OC(F)(F)F)cccc32)CC1 [Example 304] |
| 200 | – | CCOc1cccc2c1cnn2C1CCN(C(=O)N[C@H]2CC[C@@H](OC)CC2)CC1 [Example 184] |
| 210 | – | CO[C@H]1CC[C@H](NC(=O)N2CCC(n3ncc4cc(-c5ccc(F)cc5)ccc43)CC2)CC1 [Example 155] |
| 3399 | stronger PAM activity than others | Cc1ccc2c(cnn2C2CCN(C(=O)NC3CCC(F)(F)CC3)CC2)c1 [Example 13, N-(4,4-difluorocyclohexyl)-4-(5-methyl-1H-indazol-1-yl)piperidine-1-carboxamide] |
| 3053 | stronger PAM activity than others | Cc1ccc2c(cnn2C2CCN(C(=O)NC3CCCCC3)CC2)c1 [Example 8, N-cyclohexyl-4-(5-methyl-1H-indazol-1-yl)piperidine-1-carboxamide] |
| 430 | – | COCc1nn(C2CCN(C(=O)NC3CCCCC3)CC2)c2ccc(C)cc12 [Example 68] |
| 190 | – | O=C(C1CCOCC1)N1CCC(n2ncc3cc(F)ccc32)CC1 [Example 104] |

| α7PAM (%) @ 10 μmol/L [%] | PAM activity for α7 nAChR (in words) | Structure (SMILES) |
| --- | --- | --- |
| 2344 | stronger PAM activity than others | CCc1ccc2c(cnn2[C@H]2CC[C@@H](NC(=O)C3CCC(F)(F)CC3)CC2)c1 [Example 4, N-(cis-4-(5-ethyl-1H-indazol-1-yl)cyclohexyl)-4,4-difluorocyclohexanecarboxamide] |
| 360 | – | COc1c(C(F)(F)F)ccc2c1cnn2C1CCN(C(=O)NC2CCC(OC)CC2)CC1 (stereo not drawn) [Example 317] |
| 89 | – | COC1CCC(NC(=O)N2CCC(n3ncc4c(Br)cccc43)CC2)CC1 (stereo not drawn) [Example 98] |
| 420 | – | CCCc1ccc2c(cnn2C2CCN(C(=O)NC3CCC(OC)CC3)CC2)c1 (stereo not drawn) [Example 76] |
| 1425 | – | CCc1ccc2c(cnn2C2CCN(C(=O)NC3CCCOC3)CC2)c1 (stereo not drawn) [Example 22, 4-(5-ethyl-1H-indazol-1-yl)-N-(tetrahydro-2H-pyran-3-yl)piperidine-1-carboxamide] |
| 1202 | – | CC(C)Oc1ccc2c(cnn2C2CCN(C(=O)NC3CCCCC3)CC2)c1 [Example 48, N-cyclohexyl-4-(5-isopropoxy-1H-indazol-1-yl)piperidine-1-carboxamide] |
| – | stronger PAM activity than others | COc1ccc2c(cnn2C2CCN(C(=O)NC3CCCCC3)CC2)c1 [Example 40] |
| 860 | – | COC(C)c1c(C)ccc2c1cnn2C1CCN(C(=O)NC2CCC(F)(F)CC2)CC1 (stereo not drawn) [Example 232] |
| 370 | – | O=C(NC1CCC(F)(F)CC1)N1CCC(n2ncc3c(OC(F)F)cccc32)CC1 [Example 201] |
| 410 | – | CCc1ccc2c(cnn2[C@H]2CC[C@@H](NC(=O)[C@H]3CC[C@H](OC)CC3)CC2)c1 [Example 122] |
| 220 | – | O=C(Nc1ccc(C(F)(F)F)nc1)N1CCC(n2ncc3cc(C4CC4)ccc32)CC1 [Example 187] |
| 1033 | – | Cc1ccc2c(cnn2C2CCN(C(=O)N[C@H]3CCCC3(F)F)CC2)c1 [Example 80, (S)—N-(2,2-difluorocyclopentyl)-4-(5-methyl-1H-indazol-1-yl)piperidine-1-carboxamide] |
| 1433 | – | CO[C@H]1CC[C@H](NC(=O)N2CCC(n3ncc4cc(OC(F)F)ccc43)CC2)CC1 [Example 291, 4-[5-(difluoromethoxy)-1H-indazol-1-yl]-N-(trans-4-methoxycyclohexyl)piperidine-1-carboxamide] |
| 420 | – | Cc1ccc2c(cnn2C2CCN(C(=O)NC3CCC(OCC(F)(F)F)CC3)CC2)c1 (stereo not drawn) [Example 83] |
| 1463 | – | O=C(NC1CCC(F)(F)CC1)N1CCC(n2ncc3cc(OC4CC4)ccc32)CC1 [Example 249, 4-[5-(cyclopropoxy)-1H-indazol-1-yl]-N-(4,4-difluorocyclohexyl)piperidine-1-carboxamide] |
| 430 | – | COCCCc1ccc2c(cnn2C2CCN(C(=O)N[C@H]3CC[C@H](OC)CC3)CC2)c1 [Example 32] |
| 340 | – | O=C(NC1CCOCC1)N1CCC(n2ncc3cc(C(F)(F)F)ccc32)CC1 [Example 297] |

| Structure (SMILES) | α7PAM (%) @ 10 μmol/L [%] | PAM activity for α7 nAChR (in words) |
| --- | --- | --- |
| CCc1ccc2c(cnn2C2CCN(C(=O)NC3CCC(F)(F)CC3)CC2)c1 [Example 23] | – | stronger PAM activity than others |
| CCOc1ccc2c(cnn2C2CCN(C(=O)NC3CCCC3)CC2)c1 [Example 17] | – | stronger PAM activity than others |
